Experimental data published in patent US8785452B2, “Anti-infective compounds” (priority 2008, dated 2014).
Converted amounts (≈) assume the structure as drawn. Read-outs that look alike come from different tables or passages of the source.

Columns and labels:
[1] = tested on: M. tuberculosis H37Rv-GFP; assay: microbe, parasite or virus in culture; format: cell-based, Mycobacterium tuberculosis; conditions: Mycobacterium tuberculosis, H37RV; for inhibition at 20 µM: Macrophage
[2] = tested on: Raw264.7 cells; assay: Cell number (CellNb) from image analysis of the phenotypic cell-based assay; conditions: for Primary QIM CellNb: primary screen, 20 μM
[3] = confirmation, 20 uM, read-out: QIM Confirm % Inhibition 20 uM
[4] = primary screen, 20 μM, read-out: Primary QIM % Inhibition
[5] = confirmation, 20 uM, intracellular, read-out: QIM Confirm % Inhibition 20 uM
[6] = primary screen, 20 μM, intracellular, read-out: Primary QIM % Inhibition
[7] = read-out: Primary QIM % Inhibition
[8] = read-out: QIM Confirm % Inhibition 20 uM

| SMILES | inhibition at 20 µM [1, 5] [%] | inhibition at 20 µM [1, 6] [%] | other results |
| --- | --- | --- | --- |
| O=C(Nc1ccc(Br)cc1)c1cc([N+](=O)[O-])cc([N+](=O)[O-])c1 [IPK 000 046 92] | – | – | inhibition at 20 µM [1, 3]: 93.4%; inhibition at 20 µM [1, 4]: 90.2%; Primary QIM CellNb [2]: 303.5 |
| C=CCN1C(=O)/C(=N/NC(=O)c2ccc(F)cc2)c2ccccc21 [IPK 000 104 67] | – | – | inhibition at 20 µM [1, 3]: 73.7%; inhibition at 20 µM [1, 4]: 33.8%; Primary QIM CellNb [2]: 183.0 |
| CCCCOC(=O)C1(O)c2ccccc2-c2ccccc21 [IPK 000 105 56] | – | – | inhibition at 20 µM [1, 3]: 86.9%; inhibition at 20 µM [1, 4]: 65.7%; Primary QIM CellNb [2]: 225.0 |
| CNCCCN1c2ccccc2CCc2ccccc21 [IPK 000 224 59] | 86.2 | 72.9 | Primary QIM CellNb [2]: 60.3 |
| CN(C)c1ccc(/N=N/c2ccccc2C(=O)O)cc1 [IPK 000 052 75] | – | – | inhibition at 20 µM [1, 3]: 10.1%; inhibition at 20 µM [1, 4]: -77.4%; Primary QIM CellNb [2]: 48.8 |
| O=C(O)c1cn(C2CC2)c2cc(N3CCNCC3)c(F)cc2c1=O [IPK 000 117 14] | – | – | inhibition at 20 µM [1, 7]: 69.1%; inhibition at 20 µM [1, 8]: 66.5%; Primary QIM CellNb [2]: 546.0 |
| [C-]#[N+]c1ccc(Cl)cc1C(C)S(=O)(=O)c1ccc(C)cc1 (stereo not shown) [IPK 000 126 33] | 73.4 | 80.7 | QIM Confirm CellNb 2 uM ([2]; confirmation, 2 uM): 126.8; Primary QIM CellNb [2]: 123.3 |
| CCOC(=O)C1(O)c2ccccc2-c2ccccc21 [IPK 000 105 55] | – | – | inhibition at 20 µM [1, 3]: 91.5%; inhibition at 20 µM [1, 4]: 89.3%; Primary QIM CellNb [2]: 181.3 |
| COc1ccc(/C=N/Nc2nc(-c3ccccc3)cs2)cc1 [IPK 000 163 62] | 107 | 81.3 | – |
| NNC(=O)CSc1nc2ccccc2s1 [IPK 000 160 45] | 70.7 | 66 | – |
| CC(C)CNC(=O)c1cc([N+](=O)[O-])cc([N+](=O)[O-])c1 [IPK 000 046 78] | – | – | inhibition at 20 µM [1, 7]: 73.3%; inhibition at 20 µM [1, 8]: 88.9% |
| CC(C)(C)c1ccc(-c2nc(Oc3ccc(O)cc3)c3ccccc3n2)cc1 [IPK 000 142 18] | 79.4 | 73.2 | – |
| O=[N+]([O-])c1ccc(CSc2nnnn2C2CCCCC2)cc1 [IPK 000 258 07] | 72.7 | 49.9 | – |
| Cc1ccc(NC(=O)c2ccc(CSc3ccccn3)cc2)c(C)c1 [IPK 000 125 22] | 82 | 75.4 | – |
| C/C(=C\c1ccc2c(c1)OCO2)[N+](=O)[O-] [IPK 000 240 37] | – | – | inhibition at 20 µM [1, 7]: 17%; inhibition at 20 µM [1, 8]: 67.5% |
| COc1cc2ccccc2cc1C(=O)Nc1nccs1 [IPK 000 133 02] | 37.2 | -44.8 | – |
| Cc1ccsc1/C=C1/SC(N2CCCCC2)=NC1=O [IPK 000 129 72] | 75.4 | 61.8 | – |
| O=C(Nc1nccs1)c1ccc(COc2ccc(F)cc2)o1 [IPK 000 141 08] | 84 | 67.5 | – |
| CCCC(=O)Nc1ccc(-c2csc(N/N=C/c3ccc(SC)cc3)n2)cc1 [IPK 000 163 51] | 50 | 89.4 | – |
| Cc1ccoc1/C=N/NC(=O)c1ccncc1 [IPK 000 193 76] | 97.4 | 81.4 | – |
| CCCCNC(=O)c1cc([N+](=O)[O-])cc([N+](=O)[O-])c1 [IPK 000 046 87] | – | – | inhibition at 20 µM [1, 7]: 74.4%; inhibition at 20 µM [1, 8]: 56.3% |
| CCOc1ccc(NCC(=O)n2nc(C)cc2C)cc1 [IPK 000 234 61] | -1.6 | -61 | – |
| CCOc1ncccc1C(=O)N/N=C/c1ccc([N+](=O)[O-])o1 [IPK 000 148 65] | 29.1 | 41.2 | – |
| CC1=NN(C(N)=S)C(=O)/C1=N/Nc1ccc(O)cc1 [IPK 000 171 84] | 13.3 | -79.6 | – |
| O=C(COc1ccc(F)cc1)Nc1nccs1 [IPK 000 247 44] | 97.1 | 89.1 | – |
| O=C(COc1ccccc1)N/N=C/c1ccc([N+](=O)[O-])o1 [IPK 000 149 78] | 3.6 | 15.2 | – |

| SMILES | inhibition at 20 µM [1, 5] [%] | inhibition at 20 µM [1, 6] [%] | other results |
| --- | --- | --- | --- |
| CCOc1ccc(NN=C(C#N)C#N)cc1 [IPK 000 170 72] | – | – | inhibition at 20 µM [1, 7]: -29.5%; inhibition at 20 µM [1, 8]: -21.3% |
| COc1ccccc1N1CCN(C(=O)c2ccc([N+](=O)[O-])o2)CC1 [IPK 000 235 12] | 26.9 | -67.9 | – |
| O=[N+]([O-])c1ccc(Cl)c(/C=N/c2ccccc2O)c1 [IPK 000 169 68] | -5.3 | -5 | – |
| CS(=O)(=O)c1nc(-c2ccc(Br)cc2)n[nH]1 [IPK 000 134 62] | 25.5 | -56.1 | – |
| O=C([O-])Cc1ccccc1Nc1c(Cl)cccc1Cl.[Na+] [IPK 000 117 05] | – | – | inhibition at 20 µM [1, 3]: 80.5%; inhibition at 20 µM [1, 4]: 79.8%; Primary QIM CellNb [2]: 656.5 |
| Cc1ccsc1/C=C/c1ccccc1O [IPK 000 179 05] | 16.6 | -31.7 | – |
| O=C(NCCc1ccccc1)c1ccc([N+](=O)[O-])o1 [IPK 000 235 09] | 36.4 | 46.2 | – |
| Cc1noc(NS(=O)(=O)c2ccc(N)cc2)c1C [IPK 000 254 12] | 13.2 | 30.3 | – |
| CC1=NN(c2ccc([N+](=O)[O-])cc2)C(=O)/C1=N/Nc1c(Cl)cc([N+](=O)[O-])cc1Cl [IPK 000 179 49] | – | – | inhibition at 20 µM [1, 7]: 65.7%; inhibition at 20 µM [1, 8]: 78.5% |
| O=C(c1ccc([N+](=O)[O-])o1)N1CCN(Cc2ccccc2)CC1 [IPK 000 135 28] | 26.6 | 53.3 | – |
| ON=C(/C=C/c1ccccc1)/C=C/c1ccccc1 [IPK 000 168 10] | 65.6 | 38 | – |
| O=C(CCc1ccccc1)N1CCN(Cc2ccccc2)CC1 [IPK 000 126 73] | 60.8 | 85.7 | – |
| CC(C)(C)c1ccc(C(=O)NC2CCCCCCC2)cc1 [IPK 000 248 71] | 79 | 79.5 | – |
| CCc1ccc(C2(O)CC(C(F)(F)F)=NN2C(=O)c2ccncc2)cc1 (stereo not shown) [IPK 000 134 51] | 102 | 90.2 | – |
| CO[C@H]1/C=C/O[C@@]2(C)Oc3c(C)c(O)c4c(O)c(c(/C=N/N5CCN(C)CC5)c(O)c4c3C2=O)NC(=O)/C(C)=C\C=C\[C@H](C)[C@H](O)[C@@H](C)[C@@H](O)[C@@H](C)[C@H](OC(C)=O)[C@@H]1C [rifampin, reference compound] | – | – | MIC ([1]; 120 h, read-out: minimal inhibitory concentration (MIC)): 2.4 µg/mL (≈ 2.92 µM) |
| O=C(Nc1ccc(C(F)(F)F)cc1)Nc1cccc(F)c1 [IPK 000 146 91] | 70 | 57 | – |
| O=c1[nH]cc(Sc2cccc3cccnc23)c(=O)[nH]1 [IPK 000 149 02] | 19.1 | 23.5 | – |
| CCCC(C)c1ccc(OCC(=O)N/N=C/c2ccsc2)cc1 (stereo not shown) [IPK 000 148 11] | 86.6 | 65.4 | – |
| C/C(Cn1nnc([N+](=O)[O-])n1)=N\Nc1c(Cl)cc(Cl)cc1Cl [IPK 000 150 48] | 16.1 | -96.3 | – |
| O=C(c1ccc([N+](=O)[O-])o1)N1CCCc2ccccc21 [IPK 000 161 32] | 17.8 | -37.9 | – |
| O=[N+]([O-])c1ccc(O)c(-c2cc(C(F)(F)C(F)F)[nH]n2)c1 [IPK 000 164 52] | 80 | 64.7 | – |
| O=C(CSc1ccc(Nc2ccc(Cl)cc2)nn1)Nc1ccc(Cl)cc1 [IPK 000 200 16] | 76.8 | 73.3 | – |
| CC(C)(C)c1cc(C(=O)N/N=C2\C(=O)N(Cc3ccccc3)c3ccccc32)[nH]n1 [IPK 000 138 12] | 105 | 96.8 | Primary QIM CellNb [2]: 480.8 |
| CCCCS(=O)(=O)Nc1ccc(Cc2ccncc2)cc1 [IPK 000 249 12] | 53.2 | 23.6 | – |
| NNC(=O)c1ccc(COc2ccc(Cl)cc2)o1 [IPK 000 140 87] | 91.1 | 92.2 | – |
